From PubChem BioAssay (NCI)
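In this assay, cells in 96-well plates receive the compound at five concentrations for 48 hours. Endpoints are linearly interpolated between the surrounding concentrations. Abbreviation: GI50, concentration required for 50% inhibition of growth. At the TGI there is no net growth.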

Assays:
Test in all cases: inhibition of tumour cell growth, NCI panel, 48 h
HCT-15 colon = test system: HCT-15 colon
PC-3 prostate = test system: PC-3 prostate
NCI-H460 lung = test system: NCI-H460 lung
SF-295 CNS = test system: SF-295 CNS
MOLT-4 leukemia = test system: MOLT-4 leukemia
K-562 leukemia = test system: K-562 leukemia
SK-OV-3 ovarian = test system: SK-OV-3 ovarian
HCC-2998 colon = test system: HCC-2998 colon
SK-MEL-28 melanoma = test system: SK-MEL-28 melanoma
HOP-92 NSCLC = test system: HOP-92 NSCLC
NCI-H23 lung = test system: NCI-H23 lung
OVCAR-8 ovarian = test system: OVCAR-8 ovarian
CCRF-CEM leukemia = test system: CCRF-CEM leukemia
HL-60(TB) leukemia = test system: HL-60(TB) leukemia
EKVX NSCLC = test system: EKVX NSCLC
NCI-H226 lung = test system: NCI-H226 lung
IGROV1 ovarian = test system: IGROV1 ovarian
UO-31 renal = test system: UO-31 renal
SNB-19 CNS = test system: SNB-19 CNS
MDA-MB-231 breast = test system: MDA-MB-231 breast
A549 NSCLC = test system: A549 NSCLC
HCT-116 colon = test system: HCT-116 colon
SF-268 CNS = test system: SF-268 CNS
T-47D breast = test system: T-47D breast
MDA-MB-468 breast = test system: MDA-MB-468 breast
HT29 colon = test system: HT29 colon
KM12 colon = test system: KM12 colon
TK-10 renal = test system: TK-10 renal
A498 renal = test system: A498 renal
MDA-MB-435 = test system: MDA-MB-435
U251 CNS = test system: U251 CNS
LOX IMVI melanoma = test system: LOX IMVI melanoma
HS 578T breast = test system: HS 578T breast
786-0 renal = test system: 786-0 renal
RXF 393 renal = test system: RXF 393 renal
HOP-62 NSCLC = test system: HOP-62 NSCLC
OVCAR-3 ovarian = test system: OVCAR-3 ovarian
NCI/ADR-RES ovarian = test system: NCI/ADR-RES ovarian
MCF7 breast = test system: MCF7 breast
UACC-62 melanoma = test system: UACC-62 melanoma
DU-145 prostate = test system: DU-145 prostate
OVCAR-4 ovarian = test system: OVCAR-4 ovarian
ACHN renal = test system: ACHN renal
M14 melanoma = test system: M14 melanoma
NCI-H522 lung = test system: NCI-H522 lung
MALME-3M melanoma = test system: MALME-3M melanoma
SW-620 colon = test system: SW-620 colon
CAKI-1 renal = test system: CAKI-1 renal
SR leukemia = test system: SR leukemia
RPMI-8226 leukemia = test system: RPMI-8226 leukemia
SF-539 CNS = test system: SF-539 CNS
OVCAR-5 ovarian = test system: OVCAR-5 ovarian
SN12C renal = test system: SN12C renal

COc1ccc(NC(=O)Nc2nc3ccc([N+](=O)[O-])cc3s2)cc1
GI50 (HCT-15 colon): 2.68 µM
TGI (HCT-15 colon): 10.4 µM
GI50 (PC-3 prostate): 2.15 µM
TGI (PC-3 prostate): 8.35 µM
GI50 (NCI-H460 lung): 2.37 µM
TGI (NCI-H460 lung): 5.79 µM
GI50 (SF-295 CNS): 1.9 µM
TGI (SF-295 CNS): 4.3 µM
GI50 (MOLT-4 leukemia): 2.71 µM
TGI (MOLT-4 leukemia): 10.7 µM
GI50 (K-562 leukemia): 2.71 µM
TGI (K-562 leukemia): 13 µM
GI50 (SK-OV-3 ovarian): 2.37 µM
TGI (SK-OV-3 ovarian): 7.09 µM
GI50 (HCC-2998 colon): 2.72 µM
TGI (HCC-2998 colon): 9.54 µM
GI50 (SK-MEL-28 melanoma): 3.09 µM
TGI (SK-MEL-28 melanoma): 11.9 µM
GI50 (HOP-92 NSCLC): 1.92 µM
TGI (HOP-92 NSCLC): 5.97 µM
GI50 (NCI-H23 lung): 2.22 µM
TGI (NCI-H23 lung): 6.64 µM
GI50 (OVCAR-8 ovarian): 3.18 µM
TGI (OVCAR-8 ovarian): 13.7 µM
GI50 (CCRF-CEM leukemia): 2.27 µM
TGI (CCRF-CEM leukemia): 7.69 µM
GI50 (HL-60(TB) leukemia): 2.1 µM
TGI (HL-60(TB) leukemia): 5.84 µM
GI50 (EKVX NSCLC): 2.66 µM
TGI (EKVX NSCLC): 7.96 µM
GI50 (NCI-H226 lung): 2.31 µM
TGI (NCI-H226 lung): 6.63 µM
GI50 (IGROV1 ovarian): 3.37 µM
TGI (IGROV1 ovarian): 15.3 µM
GI50 (UO-31 renal): 2.51 µM
TGI (UO-31 renal): 8.98 µM
GI50 (SNB-19 CNS): 2.85 µM
TGI (SNB-19 CNS): 16.8 µM
GI50 (MDA-MB-231 breast): 2.76 µM
TGI (MDA-MB-231 breast): 7.86 µM
GI50 (A549 NSCLC): 2.23 µM
TGI (A549 NSCLC): 6.22 µM
GI50 (HCT-116 colon): 2.52 µM
TGI (HCT-116 colon): 7.67 µM
GI50 (SF-268 CNS): 2.91 µM
TGI (SF-268 CNS): 16.2 µM
GI50 (T-47D breast): 1.67 µM
TGI (T-47D breast): 6.66 µM
GI50 (MDA-MB-468 breast): 1.66 µM
TGI (MDA-MB-468 breast): 4.17 µM
GI50 (HT29 colon): 3.34 µM
TGI (HT29 colon): 14.8 µM
GI50 (KM12 colon): 2.22 µM
TGI (KM12 colon): 5.92 µM
GI50 (TK-10 renal): 3.66 µM
TGI (TK-10 renal): 10.7 µM
GI50 (A498 renal): 1.66 µM
TGI (A498 renal): 4.83 µM
GI50 (MDA-MB-435): 1.92 µM
TGI (MDA-MB-435): 5.68 µM
GI50 (U251 CNS): 2.24 µM
TGI (U251 CNS): 5.76 µM
GI50 (LOX IMVI melanoma): 2.42 µM
TGI (LOX IMVI melanoma): 6.18 µM
GI50 (HS 578T breast): 2.81 µM
TGI (HS 578T breast): 8.21 µM
GI50 (786-0 renal): 2.89 µM
TGI (786-0 renal): 11.6 µM
GI50 (RXF 393 renal): 2.54 µM
TGI (RXF 393 renal): 7.24 µM
GI50 (HOP-62 NSCLC): 2.92 µM
TGI (HOP-62 NSCLC): 10.7 µM
GI50 (OVCAR-3 ovarian): 2.15 µM
TGI (OVCAR-3 ovarian): 5.36 µM
GI50 (NCI/ADR-RES ovarian): 2.62 µM
TGI (NCI/ADR-RES ovarian): 8.16 µM
GI50 (MCF7 breast): 2.2 µM
TGI (MCF7 breast): 6.31 µM
GI50 (UACC-62 melanoma): 2.63 µM
TGI (UACC-62 melanoma): > 100 µM
GI50 (DU-145 prostate): 3.02 µM
TGI (DU-145 prostate): 11.4 µM
GI50 (OVCAR-4 ovarian): 2.84 µM
TGI (OVCAR-4 ovarian): 12.6 µM
GI50 (ACHN renal): 2.48 µM
TGI (ACHN renal): 7.09 µM
GI50 (M14 melanoma): 2.73 µM
TGI (M14 melanoma): 9.02 µM
GI50 (NCI-H522 lung): 1.72 µM
TGI (NCI-H522 lung): 5.94 µM
GI50 (MALME-3M melanoma): 2.19 µM
TGI (MALME-3M melanoma): 6.21 µM
GI50 (SW-620 colon): 3.07 µM
TGI (SW-620 colon): 13.8 µM
GI50 (CAKI-1 renal): 2.08 µM
TGI (CAKI-1 renal): 5.01 µM
GI50 (SR leukemia): 2.52 µM
TGI (SR leukemia): 12.8 µM
GI50 (RPMI-8226 leukemia): 1.83 µM
TGI (RPMI-8226 leukemia): 5.97 µM
GI50 (SF-539 CNS): 2.41 µM
TGI (SF-539 CNS): 5.95 µM
GI50 (OVCAR-5 ovarian): 2.8 µM
TGI (OVCAR-5 ovarian): 9.95 µM
GI50 (SN12C renal): 2.66 µM
TGI (SN12C renal): 8.64 µM
